Reference: article PMC9601927 (Foods, 2022)
Entries after “also recorded” stand apart in the source; their conditions may differ.

Tests used:
Caco-2 cells [1] = experiment: MTT cell viability assay; type: cell-based
Experimental: Caco-2 cells were provided by the Cell Bank of the Chinese Academy of Sciences (Shanghai, China). MTT analysis was used to investigate cell viability. In short, Caco-2 cells were incubated with ANC (0.23, 0.69, 2.06, 6.17, 18.52, 55.56, 166.67, or 500 × 10^−3 mg/mL), FA-g-CS (0.09, 0.27, 0.82, 2.47, 7.41, 22.22, 66.67, or 200 × 10^−3 mg/mL), or their respective combinations. Each group was incubated with three multiple wells for 48 h. Subsequently, the chemical medium was replaced with fresh MTT solution for 3 h at 37 °C and the […] was dissolved with DMSO. Then, the optical density (OD) was measured at 570 nm using a PerkinElmer EnVision (PerkinElmer, Waltham, MA, USA). The following Formula (1) was used to calculate cell viability:(1) Cell viability(%)=ODsample−ODblank/ODcontrol−ODblank where ODcontrol, ODsample, and ODblank represent the measurements of the control, sample, and blank, respectively.

Caco-2 cells [2] = type: cell-based; conditions: 2.3 × 10^−4 mg/mL ANC, 48 h
Experimental: Due to cell membrane damage, the intracellular LDH was released into the culture medium. The LDH level was used as an indicator of irreversible cell death. The method used here was based on the spectrophotometric determination at 490 nm of NADH disappearance.
Upon exposure to different concentrations of ANC, FA-g-CS, or their combinations, the culture medium was aspirated and centrifuged at 400× g for 5 min in tubes with a porous matrix to acquire a cell-free supernatant. A measure of 120 microliters of media was mixed with 60 μL of reagent in a 96-well plate, and the absorbance was recorded with PerkinElmer EnVision. The cytotoxicity of these substances was reflected using the following Equation (2):(2) LDH activity(mU/mL)=ODsample−ODblank/ODstandard−ODblank of standard×1000 mU/mL where ODsample, ODblank, ODstandard, and ODblank represent the measurements of the sample, the blank, the standard, and the blank of standard, respectively.

For OC[C@H]1O[C@@H](Oc2cc3c(O)cc(O)cc3[o+]c2-c2ccc(O)c(O)c2)[C@H](O)[C@@H](O)[C@@H]1O [ANC, Cyanidin-3-glucoside], which “influence on Caco-2 cells (Figure 1A–C, MTT)” value (Caco-2 cells [1]; 2.3 × 10^−4 or 6.9 × 10^−4 mg/mL ANC) is on record?
Its value is “insignificant influence”.

And the “effect on cell viability (MTT)” value (Caco-2 cells [1]; ANC concentration lower than 6.17 × 10^−3 mg/mL, 48 h)?
Its value is “no significant effect”.

What about the “cell cytotoxicity (LDH assay)” value (Caco-2 cells [2]) of the same compound?
Its value is “negligible increase; also recorded: not toxic”.
